Measurements reported in ChEMBL document CHEMBL4385643, “Design of a brain-penetrant CDK4/6 inhibitor for glioblastoma” (Bioorg Med Chem Lett, 2019).

How the values were obtained:
[1] = biological target: Protein kinase C epsilon type (Homo sapiens) (UniProt Q02156); assay: Inhibition of recombinant full length human GST-tagged PKCepsilon expressed in insect expression system at 0.1 uM using serine/threonine-7 peptide as substrate incubated for 60 mins by Z'-LYTE assay relative to control
[2] = biological target: SRSF protein kinase 3 (Homo sapiens) (UniProt Q9UPE1); assay: Inhibition of recombinant full length human GST-tagged MSSK1 expressed in baculovirus expression system at 0.1 uM using serine/threonine-18 peptide as substrate incubated for 60 mins by Z'-LYTE assay relative to control
[3] = biological target: Death-associated protein kinase 3 (Homo sapiens) (UniProt O43293); assay: Inhibition of recombinant full length human GST-tagged ZIPK expressed in baculovirus expression system at 0.1 uM using serine/threonine-13 peptide as substrate incubated for 60 mins by Z'-LYTE assay relative to control
Chain of Death-associated protein kinase 3 (Homo sapiens) (O43293 whole entry, looked up, the tested form may be a part): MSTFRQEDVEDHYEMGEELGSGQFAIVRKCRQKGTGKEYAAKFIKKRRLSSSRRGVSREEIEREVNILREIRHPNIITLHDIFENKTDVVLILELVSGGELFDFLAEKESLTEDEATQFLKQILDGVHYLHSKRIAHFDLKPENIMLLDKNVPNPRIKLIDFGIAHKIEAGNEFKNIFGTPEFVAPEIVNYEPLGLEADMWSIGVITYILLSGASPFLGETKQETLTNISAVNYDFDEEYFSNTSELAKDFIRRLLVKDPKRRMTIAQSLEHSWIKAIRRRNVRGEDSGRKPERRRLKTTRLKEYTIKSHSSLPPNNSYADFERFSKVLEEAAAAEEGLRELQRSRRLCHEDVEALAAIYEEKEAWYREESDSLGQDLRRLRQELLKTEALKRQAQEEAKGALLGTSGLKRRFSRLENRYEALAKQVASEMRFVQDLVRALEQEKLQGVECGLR

[4] = biological target: Maternal embryonic leucine zipper kinase (Homo sapiens) (UniProt Q14680); assay: Inhibition of recombinant human GST-tagged MELK catalytic domain (1 to 340 residues) expressed in baculovirus expression system at 0.1 uM using serine/threonine-17 peptide as substrate incubated for 60 mins by Z'-LYTE assay relative to control
Chain of Maternal embryonic leucine zipper kinase (Homo sapiens) (Q14680 whole entry, looked up, the tested form may be a part): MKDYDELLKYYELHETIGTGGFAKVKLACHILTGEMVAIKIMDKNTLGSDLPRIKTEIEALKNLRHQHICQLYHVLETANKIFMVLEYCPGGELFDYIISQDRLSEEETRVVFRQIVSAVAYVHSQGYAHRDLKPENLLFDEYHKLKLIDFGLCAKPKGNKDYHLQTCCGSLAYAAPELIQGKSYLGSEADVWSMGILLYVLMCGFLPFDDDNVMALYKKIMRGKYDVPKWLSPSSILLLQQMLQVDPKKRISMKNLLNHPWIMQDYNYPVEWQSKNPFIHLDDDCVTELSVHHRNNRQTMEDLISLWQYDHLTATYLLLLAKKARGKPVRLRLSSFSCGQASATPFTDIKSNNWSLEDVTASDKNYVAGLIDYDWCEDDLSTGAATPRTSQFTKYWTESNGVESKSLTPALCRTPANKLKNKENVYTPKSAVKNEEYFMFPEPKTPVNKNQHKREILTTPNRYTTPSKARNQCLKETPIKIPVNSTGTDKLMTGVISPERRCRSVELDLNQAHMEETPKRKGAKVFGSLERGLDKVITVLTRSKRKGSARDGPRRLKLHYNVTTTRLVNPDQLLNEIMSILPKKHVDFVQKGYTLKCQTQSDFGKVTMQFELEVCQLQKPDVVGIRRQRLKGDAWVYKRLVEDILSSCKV

[5] = biological target: Vascular endothelial growth factor receptor 2 (Homo sapiens) (UniProt P35968); assay: Inhibition of recombinant human His-tagged KDR (789 to 1356 residues) expressed in baculovirus expression system at 0.1 uM using tyrosine-1 peptide as substrate incubated for 60 mins by Z'-LYTE assay relative to control
[6] = biological target: Serine/threonine-protein kinase 33 (Homo sapiens) (UniProt Q9BYT3); assay: Inhibition of tracer 236 binding to recombinant full length human His-tagged STK33 expressed in baculovirus expression system at 0.1 uM measured after 60 mins by Lanthascreen assay relative to control
[7] = biological target: 5'-AMP-activated protein kinase catalytic subunit alpha-1 (Homo sapiens) (UniProt Q13131); assay: Inhibition of recombinant full length human PRKAA1 expressed in baculovirus expression system at 0.1 uM using CREBtide as substrate 60 mins by Lanthascreen assay relative to control
[8] = biological target: MAP kinase-activated protein kinase 5 (Homo sapiens) (UniProt Q8IW41); assay: Inhibition of recombinant full length human His-tagged PRAK expressed in baculovirus expression system at 0.1 uM using serine/threonine-4 peptide as substrate incubated for 60 mins by Z'-LYTE assay relative to control
Chain of MAP kinase-activated protein kinase 5 (Homo sapiens) (Q8IW41 whole entry): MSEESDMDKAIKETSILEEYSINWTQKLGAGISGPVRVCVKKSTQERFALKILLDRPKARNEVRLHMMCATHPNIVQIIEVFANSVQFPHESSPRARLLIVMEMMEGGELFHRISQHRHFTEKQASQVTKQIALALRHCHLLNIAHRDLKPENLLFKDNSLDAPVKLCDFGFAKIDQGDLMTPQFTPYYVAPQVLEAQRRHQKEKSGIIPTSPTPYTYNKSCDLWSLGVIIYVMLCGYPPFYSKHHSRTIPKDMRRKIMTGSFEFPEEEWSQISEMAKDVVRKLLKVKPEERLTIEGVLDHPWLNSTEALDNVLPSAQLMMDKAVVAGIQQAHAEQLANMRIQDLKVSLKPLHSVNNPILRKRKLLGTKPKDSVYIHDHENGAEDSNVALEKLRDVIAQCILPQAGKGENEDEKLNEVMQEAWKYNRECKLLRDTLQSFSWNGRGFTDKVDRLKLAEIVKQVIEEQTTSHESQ

[9] = biological target: Mitogen-activated protein kinase 9 (Homo sapiens) (UniProt P45984); assay: Inhibition of recombinant full length human His-tagged JNK2 expressed in baculovirus expression system at 0.1 uM using serine/threonine-4 peptide as substrate incubated for 60 mins by Z'-LYTE assay relative to control
[10] = biological target: Tyrosine-protein kinase Yes (Homo sapiens) (UniProt P07947); assay: Inhibition of recombinant full length human GST-tagged YES expressed in baculovirus expression system at 0.1 uM using tyrosine-2 peptide as substrate incubated for 60 mins by Z'-LYTE assay relative to control
[11] = biological target: Aurora kinase A (Homo sapiens) (UniProt O14965); assay: Inhibition of recombinant full length human His-tagged Aurora A expressed in baculovirus expression system at 0.1 uM using serine/threonine-1 peptide as substrate incubated for 60 mins by Z'-LYTE assay relative to control
[12] = biological target: Ephrin type-A receptor 8 (Homo sapiens) (UniProt P29322); assay: Inhibition of recombinant human GST-tagged EPHA8 catalytic domain (565 to 1005 residues) expressed in baculovirus expression system at 0.1 uM using tyrosine-2 peptide as substrate incubated for 60 mins by Z'-LYTE assay relative to control
[13] = biological target: Dual specificity protein kinase CLK4 (Homo sapiens) (UniProt Q9HAZ1); assay: Inhibition of tracer 236 binding to recombinant full length human GST-tagged CLK4 expressed in baculovirus expression system at 0.1 uM measured after 60 mins by Lanthascreen assay relative to control
[14] = biological target: Death-associated protein kinase 1 (Homo sapiens) (UniProt P53355); assay: Inhibition of recombinant human GST-tagged DAPK1 catalytic domain (1 to 363 residues) expressed in baculovirus expression system at 0.1 uM using ZIPtide peptide as substrate incubated for 60 mins by Adapta assay relative to control
[15] = biological target: Mitogen-activated protein kinase 12 (Homo sapiens) (UniProt P53778); assay: Inhibition of recombinant full length human His-tagged p38gamma expressed in baculovirus expression system at 0.1 uM using serine/threonine-3 peptide as substrate incubated for 60 mins by Z'-LYTE assay relative to control
Chain of Mitogen-activated protein kinase 12 (Homo sapiens) (P53778 whole entry, the tested form may be a part): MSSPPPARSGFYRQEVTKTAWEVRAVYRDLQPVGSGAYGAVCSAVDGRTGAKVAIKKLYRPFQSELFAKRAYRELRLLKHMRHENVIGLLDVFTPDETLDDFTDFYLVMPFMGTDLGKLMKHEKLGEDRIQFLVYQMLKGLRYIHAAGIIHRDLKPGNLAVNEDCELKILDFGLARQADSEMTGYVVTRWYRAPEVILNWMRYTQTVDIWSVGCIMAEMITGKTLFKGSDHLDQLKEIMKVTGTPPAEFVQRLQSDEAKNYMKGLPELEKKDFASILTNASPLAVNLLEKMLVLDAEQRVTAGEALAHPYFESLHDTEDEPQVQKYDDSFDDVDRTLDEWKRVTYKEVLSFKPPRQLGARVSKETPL

[16] = biological target: Leukocyte tyrosine kinase receptor (Homo sapiens) (UniProt P29376); assay: Inhibition of recombinant human GST-tagged LTK (450 to 864 residues) expressed in baculovirus expression system at 0.1 uM using tyrosine-6 peptide as substrate incubated for 60 mins by Z'-LYTE assay relative to control
[17] = biological target: Protein kinase C zeta type (Homo sapiens) (UniProt Q05513); assay: Inhibition of recombinant full length human PKCzeta expressed in baculovirus expression system at 0.1 uM using serine/threonine-7 peptide as substrate incubated for 60 mins by Z'-LYTE assay relative to control
Chain of Protein kinase C zeta type (Homo sapiens) (Q05513 whole entry, the tested form may be a part): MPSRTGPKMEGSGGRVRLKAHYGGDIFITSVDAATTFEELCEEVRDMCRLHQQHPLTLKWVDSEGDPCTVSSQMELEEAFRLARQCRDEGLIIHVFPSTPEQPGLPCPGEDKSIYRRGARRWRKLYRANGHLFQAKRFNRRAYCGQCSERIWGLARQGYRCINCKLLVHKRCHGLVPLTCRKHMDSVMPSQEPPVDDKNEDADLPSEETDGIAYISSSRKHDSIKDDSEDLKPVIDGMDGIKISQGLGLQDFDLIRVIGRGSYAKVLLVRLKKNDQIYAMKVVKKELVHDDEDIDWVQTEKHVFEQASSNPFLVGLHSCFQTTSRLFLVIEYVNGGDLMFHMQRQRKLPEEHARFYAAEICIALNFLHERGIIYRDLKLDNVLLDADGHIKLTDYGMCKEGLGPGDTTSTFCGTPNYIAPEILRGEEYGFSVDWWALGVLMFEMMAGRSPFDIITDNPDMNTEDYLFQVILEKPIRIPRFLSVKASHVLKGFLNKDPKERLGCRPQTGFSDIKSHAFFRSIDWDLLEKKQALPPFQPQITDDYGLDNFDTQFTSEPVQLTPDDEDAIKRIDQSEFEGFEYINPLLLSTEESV

[18] = biological target: Tyrosine-protein kinase Mer (Homo sapiens) (UniProt Q12866); assay: Inhibition of recombinant human GST-tagged MER (578 to 872 residues) expressed in baculovirus expression system at 0.1 uM using tyrosine-2 peptide as substrate incubated for 60 mins by Z'-LYTE assay relative to control
Chain of Tyrosine-protein kinase Mer (Homo sapiens) (Q12866 whole entry, the tested form may be a part): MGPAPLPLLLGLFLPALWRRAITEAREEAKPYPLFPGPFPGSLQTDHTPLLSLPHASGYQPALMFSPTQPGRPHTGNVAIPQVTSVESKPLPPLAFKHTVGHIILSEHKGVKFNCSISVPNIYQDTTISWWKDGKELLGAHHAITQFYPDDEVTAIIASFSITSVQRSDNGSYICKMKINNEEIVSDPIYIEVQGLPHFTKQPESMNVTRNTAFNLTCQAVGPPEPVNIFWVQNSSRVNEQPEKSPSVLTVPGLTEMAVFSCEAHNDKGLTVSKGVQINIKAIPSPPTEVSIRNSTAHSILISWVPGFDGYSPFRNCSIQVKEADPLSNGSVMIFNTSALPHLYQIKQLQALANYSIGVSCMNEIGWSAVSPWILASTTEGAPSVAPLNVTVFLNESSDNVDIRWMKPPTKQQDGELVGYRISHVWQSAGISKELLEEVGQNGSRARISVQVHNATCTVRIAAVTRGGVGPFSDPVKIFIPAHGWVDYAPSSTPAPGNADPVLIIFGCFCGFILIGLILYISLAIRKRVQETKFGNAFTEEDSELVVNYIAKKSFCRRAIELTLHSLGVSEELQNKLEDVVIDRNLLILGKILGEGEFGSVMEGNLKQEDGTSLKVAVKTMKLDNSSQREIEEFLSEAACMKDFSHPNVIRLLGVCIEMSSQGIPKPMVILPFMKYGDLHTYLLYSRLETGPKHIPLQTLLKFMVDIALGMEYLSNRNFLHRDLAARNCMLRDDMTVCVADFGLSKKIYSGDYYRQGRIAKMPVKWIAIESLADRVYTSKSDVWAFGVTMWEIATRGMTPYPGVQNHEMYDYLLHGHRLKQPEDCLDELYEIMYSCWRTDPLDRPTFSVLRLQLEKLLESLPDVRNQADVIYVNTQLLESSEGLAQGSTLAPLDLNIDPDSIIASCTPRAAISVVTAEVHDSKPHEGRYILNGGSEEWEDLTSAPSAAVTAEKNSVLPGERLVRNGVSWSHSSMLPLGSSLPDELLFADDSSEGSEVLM

[19] = biological target: Ribosomal protein S6 kinase alpha-1 (Homo sapiens) (UniProt Q15418); assay: Inhibition of recombinant full length human His-tagged RSK1 expressed in baculovirus expression system at 0.1 uM using serine/threonine-6 peptide as substrate incubated for 60 mins by Z'-LYTE assay relative to control
Chain of Ribosomal protein S6 kinase alpha-1 (Homo sapiens) (Q15418 whole entry): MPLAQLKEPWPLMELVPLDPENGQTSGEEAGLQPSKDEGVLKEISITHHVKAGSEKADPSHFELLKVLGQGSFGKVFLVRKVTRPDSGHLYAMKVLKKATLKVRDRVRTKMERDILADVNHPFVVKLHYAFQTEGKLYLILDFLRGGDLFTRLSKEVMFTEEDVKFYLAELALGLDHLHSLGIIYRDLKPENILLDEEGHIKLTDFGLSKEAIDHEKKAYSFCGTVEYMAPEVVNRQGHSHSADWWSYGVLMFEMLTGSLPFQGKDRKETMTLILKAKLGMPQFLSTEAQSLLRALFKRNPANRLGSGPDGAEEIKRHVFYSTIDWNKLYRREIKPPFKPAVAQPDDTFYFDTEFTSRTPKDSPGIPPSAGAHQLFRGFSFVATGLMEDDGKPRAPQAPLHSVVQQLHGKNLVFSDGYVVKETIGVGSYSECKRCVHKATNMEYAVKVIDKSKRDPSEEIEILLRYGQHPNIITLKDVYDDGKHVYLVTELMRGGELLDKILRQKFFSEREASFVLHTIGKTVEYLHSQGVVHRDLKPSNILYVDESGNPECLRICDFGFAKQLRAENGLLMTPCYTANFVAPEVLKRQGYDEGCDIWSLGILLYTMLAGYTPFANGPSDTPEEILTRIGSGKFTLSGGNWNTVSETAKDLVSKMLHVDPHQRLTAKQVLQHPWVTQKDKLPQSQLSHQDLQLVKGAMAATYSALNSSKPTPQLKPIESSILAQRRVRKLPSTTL

[20] = biological target: Ribosomal protein S6 kinase alpha-3 (Homo sapiens) (UniProt P51812); assay: Inhibition of recombinant full length human His-tagged RSK2 expressed in baculovirus expression system at 0.1 uM using serine/threonine-6 peptide as substrate incubated for 60 mins by Z'-LYTE assay relative to control
[21] = biological target: Dual specificity tyrosine-phosphorylation-regulated kinase 1A (Homo sapiens) (UniProt Q13627); assay: Inhibition of recombinant full length human GST-tagged DYRK1A expressed in baculovirus expression system at 0.1 uM using serine/threonine-18 peptide as substrate incubated for 60 mins by Z'-LYTE assay relative to control
[22] = biological target: Serine/threonine-protein kinase Chk2 (Homo sapiens) (UniProt O96017); assay: Inhibition of recombinant full length human His-tagged CHK2 expressed in baculovirus expression system at 0.1 uM using serine/threonine-07 peptide as substrate incubated for 60 mins by Z'-LYTE assay relative to control
[23] = biological target: Ephrin type-B receptor 3 (Homo sapiens) (UniProt P54753); assay: Inhibition of recombinant human GST-tagged EPHB3 catalytic domain (623 to 907 residues) expressed in baculovirus expression system at 0.1 uM using tyrosine-2 peptide as substrate incubated for 60 mins by Z'-LYTE assay relative to control

Chain of Protein kinase C epsilon type (Homo sapiens) (Q02156 whole entry): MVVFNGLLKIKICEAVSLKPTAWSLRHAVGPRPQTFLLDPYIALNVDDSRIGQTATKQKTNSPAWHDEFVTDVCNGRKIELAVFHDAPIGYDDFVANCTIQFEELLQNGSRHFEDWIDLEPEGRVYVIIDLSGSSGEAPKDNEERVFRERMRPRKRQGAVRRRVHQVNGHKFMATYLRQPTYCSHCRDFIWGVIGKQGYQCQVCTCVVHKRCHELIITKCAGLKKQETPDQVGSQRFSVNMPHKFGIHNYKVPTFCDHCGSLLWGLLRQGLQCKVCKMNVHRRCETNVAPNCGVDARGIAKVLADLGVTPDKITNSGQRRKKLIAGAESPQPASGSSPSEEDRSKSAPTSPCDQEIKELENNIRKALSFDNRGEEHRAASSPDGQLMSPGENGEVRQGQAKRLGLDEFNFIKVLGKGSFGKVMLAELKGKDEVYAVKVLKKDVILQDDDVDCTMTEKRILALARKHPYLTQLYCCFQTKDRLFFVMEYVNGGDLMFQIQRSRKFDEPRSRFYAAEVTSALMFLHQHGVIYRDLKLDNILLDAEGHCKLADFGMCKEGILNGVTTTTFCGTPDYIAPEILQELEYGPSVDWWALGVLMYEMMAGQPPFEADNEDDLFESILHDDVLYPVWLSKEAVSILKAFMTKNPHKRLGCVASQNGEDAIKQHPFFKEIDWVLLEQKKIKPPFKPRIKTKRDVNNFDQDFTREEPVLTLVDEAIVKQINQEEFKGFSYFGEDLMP

CCN1CC2(C1)CN(c1ccc(Nc3ncc(F)c(-c4cnn5c4[C@H](C)CCCC5)n3)nc1)C2
inhibition [1]: 14.5% | inhibition [2]: 9% | inhibition [3]: 6% | inhibition [4]: 44% | inhibition [5]: 17.5% | inhibition [6]: 50% | inhibition [7]: 10% | inhibition [8]: 13.5% | inhibition [9]: 61.5% | inhibition [10]: 8.5% | inhibition [11]: 12% | inhibition [12]: 3.5% | inhibition [13]: 95% | inhibition [14]: 14% | inhibition [15]: 16% | inhibition [16]: 25.5% | inhibition [17]: -3% | inhibition [18]: 4% | inhibition [19]: 19.5% | inhibition [20]: 53% | inhibition [21]: 26.5% | inhibition [22]: 22.5% | inhibition [23]: 1%

CCN1CCN(Cc2ccc(Nc3ncc(F)c(-c4cc(F)c5nc(C)n(C(C)C)c5c4)n3)nc2)CC1 [ABEMACICLIB]
inhibition [1]: 22.5% | inhibition [2]: 3.5% | inhibition [3]: 54.5% | inhibition [4]: 12.5% | inhibition [5]: 4.5% | inhibition [6]: 50.8% | inhibition [7]: 13.5% | inhibition [8]: 5% | inhibition [9]: 25.5% | inhibition [10]: 9% | inhibition [11]: 9.5% | inhibition [12]: 1% | inhibition [13]: 97.7% | inhibition [14]: 31.2% | inhibition [15]: 5% | inhibition [16]: 10.5% | inhibition [17]: 12% | inhibition [18]: 20.5% | inhibition [19]: 8% | inhibition [20]: 10.5% | inhibition [21]: 92.5% | inhibition [22]: 0.5% | inhibition [23]: -0.5%
